No end group written: not given here.
Columns and labels:
[1] = tested on: Leptospira interrogans sl serovar canicola; assay: Dogs immunized with PP-KLH, canicola challenge: PCR on plasma, urine and kidney samples; assay type: in vivo, dog
Protocol: The animals are given a challenge at a rate of one virulent culture of 4 to 6 days. For an immunized batch and a control batch, each animal received, in each eye, 0.3 ml of the culture having a titer of 120 TU (i.e. 2×10^8 leptospires per ml) and, intraperitoneally, 4 ml of the same culture diluted ten-fold.
The presence of leptospires was studied jointly by PCR (PCR specific for pathogenic leptospires) and by culturing, in the urine at D0, D10, D14, D18, D25 and D41 and in the kidney samples from each animal at the end of the trial at […].
Moreover, the bacteriological results were quantified through the setting up of a coefficient: • by immediate culturing. A single live leptospire can give a positive culture. A relative estimation of the bacterial concentration is expressed by means of a coefficient of 3 when a culture has developed in the third serial dilution prepared from the sample. • by PCR on frozen samples. […] A coefficient of 1 was assigned to a PCR with a weak signal and a coefficient of 2 to a strongly positive PCR.

[2] = Dogs immunized with PP-KLH, immunization phase (tolerance, weight); assay type: in vivo, dog
Protocol: An immunization/challenge protocol was carried out in order to evaluate the protection that can be provided by the PP peptide (SEQ ID No. 1) NH2-coupled to the KLH carrier protein (FIG. 14).
This construct is administered subcutaneously without adjuvant, with PBS as a negative control (batch 2).
Batch 1: 6 SPF dogs, 2 injections of 250 μg of PP-KLH in 1 ml subcutaneously.
Batch 2: 6 SPF dogs, control.
The two injections were administered subcutaneously, […].
The immunization phase was carried out from D-39 to D-1, (D0 being the day of challenge), with the first injection on D-35 and second on D-18.
During this phase, the weight was measured on D-39, D-35, D-28, and D-7 (FIG. 15).

PP peptide = assay: Immunization of mice with PP peptide coupled to KLH, anti-PP IgG1/IgG2A ELISA; assay type: in vivo
Protocol: A batch of 5 mice was formed. Two injections were administered subcutaneously, two weeks apart. The 1st injection consists of 10 μg of PP peptide coupled to KLH, with complete Freund's adjuvant, in a volume of 200 μl (v/v). The 2nd injection consists of 10 μg of PP peptide coupled to KLH, with incomplete Freund's adjuvant, in a volume of 200 μl (v/v). This trial was carried out twice.
In parallel, a batch of 5 mice given nothing is used as a control.
A blood sample was taken two weeks after the second injection for serological monitoring.
The anti-PP antibodies produced in the mice are titered by means of an ELISA technique either on individual serological samples or on pools of several sera. The PP antigen is adsorbed in Immulon 4 plates (Dynatech) at a rate of 500 ng of PP per well diluted in 10 mM sodium carbonate buffer, pH=9.4.
After an overnight period at 4° C., the plates are washed with PBS containing 0.2% tween20, and then saturated with a solution of 1% BSA in TNE (50 mM Tris, 150 mM NaCl, 1 mM EDTA, pH 7.4) for 60 min at 37° C. […] The colored reaction is read in a spectrophotometer at 405 nm.
The results of the anti-PP IgG1 antibody response, expressed as corrected OD, of the immunization trials 1 and 2 with the PP peptide coupled to KLH are given in FIG. 1. […]

[3] = tested on: Leptospira interrogans sl serovar canicola; assay: Dogs immunized with PP-KLH, canicola challenge: cultures of plasma, urine and kidney samples; assay type: in vivo, dog

PP-KLH: PP peptide with cysteine added at the N-terminal position, coupled via sulfo-MBS to KLH carrier protein (keyhole limpet hemocyanin) (KAKPVQKLDDDDDGDDTYKEERHNK; not fully specified (N-terminus))
positive PCR/dogs ([1]; Kidneys, D41): 1/6 | positive PCR/dogs ([1]; Plasma, D0): 0/6 | positive PCR/dogs ([1]; Plasma, D3): 6/6 | positive PCR/dogs ([1]; Plasma, D7): 0/6 | positive PCR/dogs ([1]; Urine, D14): 2/6 | positive PCR/dogs ([1]; Urine, D18): 1/6 | positive PCR/dogs ([1]; Urine, D25): 3/6 | positive PCR/dogs ([1]; Urine, D41): 4/6 | tolerance in immunization phase ([2]; SPF dogs, 2 s.c. injections of 250 μg without adjuvant): complete tolerance | p, evolution of mean increase in weights, control versus immunized dogs (not significantly different) ([2]; between D-35 and D-7): 0.8509 | immunogenicity (PP peptide): very immunogenic | anti-PP IgG2A antibody response (PP peptide; 2 s.c. injections of 10 μg with Freund's adjuvant): high but less substantial than the anti-PP IgG1 response | positive cultures/dogs ([3]; Kidneys, D41): 5/6 | positive cultures/dogs ([3]; Urine, D7): 3/6

Reference: US20070197432A1, “Peptides for preventing, diagnosing and treating animal and/or human leptospirosis” (priority 2002, published 2007)
